Broadly, the EC50 is the midpoint of the concentration-response curve. In general, solubility refers to the concentration that dissolves in the medium under given conditions.

Values after ≈ are worked out from the molar mass of the structure shown. Like-named read-outs stand apart in the source and are kept apart here.

The nature of series [1]: Stability in 200 mM potassium phosphate buffer (pH 7.4). Format: physicochemical. The following applies: 1 μM. On the procedure: According to the earlier aqueous solution stability study, all prodrugs are stable in 20 mM Sodium Phosphate dibasic with 125 mM NaCl at saturation concentrations (3-30 mg/ml). Also, in the method development work, it was also observed that the most unstable prodrugs III, IV and XIV were stable in 200 mM potassium phosphate buffer (pH 7.4) at a low concentration of 1 μM.

A short description of series [2]: In vitro metabolic stability of prodrugs in liver microsomes, across all species. Format: in vitro ADME, human, Beagle dog, Sprague Dawley rat, Cynomolgus monkey. On the procedure: In the second assay, four prodrugs (III, IV, VII and XIV) were tested in Cyno monkey liver microsomes.
For orientation: Liver microsomes are vesicles of endoplasmic reticulum, rich in cytochrome P450 enzymes.

For the next series, the target named is T1, IP1 receptor (Homo sapiens, UniProt P43119).
T1 construct: expressed in transfected cells
As to the kind of experiment: cAMP assay (TR-FRET or HTRF kit, forskolin), Examples 5 and 6. Format: cell-based. The settings on record: read-out: EC50, IP receptor. Here is the method: (§1) [table] Prodrug XV (for structure see FIG. 10) as well as treprostinil were tested for 3 G-protein-coupled receptors (GPCRs), namely DP1, EP2, and IP, using cyclic adenosine monophosphate (cAMP) assay. Cyclic AMP assay kits: Multiscreen™ TR-FRET cAMP 1.0 No Wash Assay Kit (Multispan, Inc., Cat #MSCM01-25) and HTRF cAMP HiRange Kit (CisBio, Cat #62AM6PEC). Instruments: FlexStation III (Molecular Devices). Cyclic AMP (cAMP) Assay: cAMP assays were performed according to the manufacturer's protocol using Multiscreen™ TR-FRET cAMP 1.0 No Wash Assay Kit or HTRF cAMP HiRange Kit. […] The reaction was terminated by sequentially adding sequentially adding trFluor™ Eu-labeled cAMP and trFluor™ 650-labeled anti-cAMP antibody or D2-labeled cAMP and cryptate-labeled anti-cAMP antibody in lysis buffer. The plate was then incubated at room temperature for 60 minutes before reading fluorescent emissions at 620 nm and 665 or 668 nm with excitation at 314 nm on FlexStation III (Molecular Devices). Cyclic AMP (cAMP) assays: Cyclic AMP assay results are shown as “Ratio 665/620×10,000” (ratio of fluorescence at 665 nm and 620 nm×10,000) or “Ratio 668/620×10,000” (ratio of fluorescence at 668 nm and 620 nm×10,000). Data in graphs were represented in Mean±SD. Dose-dependent responses were fitted with sigmoidal dose-response curves allowing variable slopes using GraphPad Prism versions 4, 5 or 6 (Graphpad Prism). Treprostinil Prodrug XIV (for structure see FIG. 10) as well as treprostinil were tested for 3 G-protein-coupled receptors (GPCRs), namely DP1, EP2, and IP, using cyclin adenosine monophosphate (cAMP) assay. Cyclic AMP assay kits: Multiscreen™ TR-FRET cAMP 1.0 No Wash Assay Kit (Multispan, Inc., Cat #MSCM01-25) and HTRF cAMP HiRange Kit (CisBio, Cat #62AM6PEC). Cyclic AMP (cAMP) Assay: cAMP assays were performed according to the manufacturer's protocol using Multiscreen™ TR-FRET cAMP 1.0 No Wash Assay Kit or HTRF cAMP HiRange Kit. […] The reaction was terminated by sequentially adding sequentially adding trFluor™ Eu-labeled cAMP and trFluor™ 650-labeled anti-cAMP antibody or D2-labeled cAMP and cryptate-labeled anti-cAMP antibody in lysis buffer. The plate was then incubated at room temperature for 60 minutes before reading fluorescent emissions at 620 nm and 665 or 668 nm with excitation at 314 nm on FlexStation III (Molecular Devices). Cyclic AMP (cAMP) assays: Cyclic AMP assay results are shown as “Ratio 665/620×10,000” (ratio of fluorescence at 665 nm and 620 nm×10,000) or “Ratio 668/620×10,000” (ratio of fluorescence at 668 nm and 620 nm×10,000). Data in graphs were represented in Mean±SD. Dose-dependent responses were fitted with sigmoidal dose-response curves allowing variable slopes using GraphPad Prism versions 4, 5 or 6 (Graphpad Prism).
On the technique in general: Cyclic AMP is a second messenger, typically raised through Gs and lowered through Gi signalling.

The next series concerns the target T2, DP1 receptor (Homo sapiens, UniProt Q13258).
T2 construct: expressed in transfected cells
T2 sequence (Q13258 1-359): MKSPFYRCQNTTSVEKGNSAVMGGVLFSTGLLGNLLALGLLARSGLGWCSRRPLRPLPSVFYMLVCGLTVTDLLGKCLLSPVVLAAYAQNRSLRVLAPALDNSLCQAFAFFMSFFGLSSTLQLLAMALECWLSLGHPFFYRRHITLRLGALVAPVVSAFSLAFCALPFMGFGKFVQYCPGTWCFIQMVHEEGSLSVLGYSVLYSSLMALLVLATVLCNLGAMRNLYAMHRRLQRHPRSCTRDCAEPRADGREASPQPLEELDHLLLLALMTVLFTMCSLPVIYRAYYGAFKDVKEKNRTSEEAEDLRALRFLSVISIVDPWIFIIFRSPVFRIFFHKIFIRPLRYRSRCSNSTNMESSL
Described as above. Format: cell-based. The settings on record: read-out: EC50, DP receptor. On the procedure: as §1

The next series deals with T3, EP2 receptor (Homo sapiens, UniProt P43116).
T3 construct: expressed in transfected cells
The series is described as above. The series is classed as cell-based. The following applies: read-out: EC50, EP receptor. Here is the method:
as §1

The nature of series [3]: Equilibrium solubility in vehicle. Format: physicochemical. The settings on record: aqueous buffer, thermodynamic from solid, 20 mM sodium phosphate dibasic with 125 mM sodium chloride; for solubility thermodynamic at 23 h: T0 hours, read-out: Equilibrium solubility, T0 hours Concentration; for solubility thermodynamic at 24 h: T24 hours, read-out: Equilibrium solubility, T24 hours Concentration; for solubility thermodynamic at 72 h: T72 hours, read-out: Equilibrium solubility, T72 hours Concentration. On the procedure: (§2) Each prodrug was dissolved in a vehicle containing 20 mM sodium phosphate dibasic with 125 mM sodium chloride. Prodrugs were prepared at saturation concentrations by weighing 15-30 mg of prodrug in to a 4 mL clear glass vial and dissolving in an appropriate volume of vehicle (0.5-1.0 mL) to achieve a nominal saturation concentration of 30 mg/mL. The solutions were mixed for 23 hours on a rotating mixer. […] The resultant supernatant solutions were isolated from undissolved prodrug by centrifugation at 15000 RPM for 15 min. Supernatants were transferred to clear glass vials and stored at ambient temperature. […] The resultant samples were assayed against treprostinil to determine prodrug concentration. At each testing interval (0, 24, 72 hours) the supernatant was assayed for prodrug concentration and purity by area %.

The nature of series [4]: Solution stability in vehicle (UPLC area %). The series is classed as physicochemical. The following applies: for Solution stability, T0 Purity: ambient. Here is the method:
as §2

Series [5] concerns Sprague Dawley rats. As to the kind of experiment: Rat intraplantar injection model, thermal pain sensitivity (Example 10). The following applies: 1 μg/mL or 100 μg/mL; 15 minutes post-administration. Format: in vivo, Sprague Dawley rat. Here is the method: (§3) Male Sprague Dawley rats (n=56) were allocated into 7 groups of 8 animals per group. […] Each group was compared to the phosphate buffer (50-mM phosphate buffer with 50-mM sodium chloride at pH=7.4) treated group, which served as the control (Group 1).
(§4) Animals were administered 0.1 mL of test material by subcutaneous injection into the paw pad (Intraplantar injection) at time zero. Then, the animals were subsequently evaluated for their response to mechanical (von Frey filaments) and thermal stimuli, 15 and 90 minutes post-injection. The von Frey test was conducted prior to the thermal test, which followed immediately within minutes for each animal. In addition, clinical observation scoring of the animal's reaction to injection was conducted.
The sensitivity of animals to a thermal pain stimulus was assessed immediately following the von Frey test. The time until withdrawal of the right-injected leg from a heat source was measured, and the lower (faster) the time of response represents a greater sensitivity to the stimulus. The test was performed 15 and 90 minutes post-test item injection.

For series [6], the system named is Sprague Dawley rats. As to the kind of experiment: Rat intraplantar injection model, von Frey test (Example 10). Format: in vivo, Sprague Dawley rat. The settings on record: 1 μg/mL or 100 μg/mL; 15 and 90 minutes post-injection. On the procedure: as §3, §4
Mechanical pain sensitivity was tested using the von Frey test, which measures the withdrawal force threshold of the animals. The lower the force applied represents a greater sensitivity to the stimulus. The von Frey test was performed 15 and 90 minutes post-test item injection.

The mark [7] stands for this setting: 20 mM sodium phosphate dibasic with 125 mM sodium chloride, T0.

T1 sequence (P43119 whole entry): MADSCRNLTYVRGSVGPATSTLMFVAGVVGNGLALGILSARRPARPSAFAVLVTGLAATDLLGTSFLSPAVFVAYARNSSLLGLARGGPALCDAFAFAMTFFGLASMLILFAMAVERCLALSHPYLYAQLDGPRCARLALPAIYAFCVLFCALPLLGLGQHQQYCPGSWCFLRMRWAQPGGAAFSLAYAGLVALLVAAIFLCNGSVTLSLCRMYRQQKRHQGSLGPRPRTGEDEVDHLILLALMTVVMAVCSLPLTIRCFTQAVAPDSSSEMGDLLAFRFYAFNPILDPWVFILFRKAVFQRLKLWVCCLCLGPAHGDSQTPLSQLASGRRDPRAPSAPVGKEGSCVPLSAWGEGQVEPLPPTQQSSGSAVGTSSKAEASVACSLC
T3 sequence (P43116 whole entry): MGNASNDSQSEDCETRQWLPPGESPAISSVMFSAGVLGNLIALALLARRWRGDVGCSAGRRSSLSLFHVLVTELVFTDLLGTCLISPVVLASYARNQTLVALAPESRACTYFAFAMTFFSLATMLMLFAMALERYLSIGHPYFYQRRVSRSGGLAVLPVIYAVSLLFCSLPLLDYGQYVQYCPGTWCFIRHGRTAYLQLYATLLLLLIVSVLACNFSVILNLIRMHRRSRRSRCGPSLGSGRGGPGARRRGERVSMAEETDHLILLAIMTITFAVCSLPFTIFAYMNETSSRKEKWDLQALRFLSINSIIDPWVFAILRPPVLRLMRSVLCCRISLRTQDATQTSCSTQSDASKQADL

On to `CCCCC[C@H](O)CC[C@@H]1[C@H]2Cc3cccc(OCC(=O)NS(C)(=O)=O)c3C[C@H]2C[C@H]1O` [Prodrug XIV, treprostinil methanesulfonamide], for which the stability in buffer entry in series [1] was “stable”. Further, the “relative stability of the prodrugs in liver microsomes” value in series [2] was “least stable”. For the same molecule, the EC50 at IP1 receptor (Table 4 (Example 6)) was 0.00333 µM. For the same molecule, the EC50 on DP1 receptor (Table 4 (Example 6)) stood at 0.0388 µM. Further, the EC50 at EP2 receptor (Table 4 (Example 6)) worked out at 0.067 µM. In addition, in series [3], the solubility thermodynamic at 23 h turned out to be 29.5 mg/mL (≈ 63.1 mM), the solubility thermodynamic at 24 h is 27.5 mg/mL (≈ 58.8 mM) and the solubility thermodynamic at 72 h was 26.6 mg/mL (≈ 56.9 mM). In [3] (approximate, read-out: Solubility in the selected vehicle), the solubility at 23 h is about 30 mg/mL (≈ 64.2 mM). Besides, in series [4] (setting [7]), the “T0 Residual Treprostinil” value is given as 0.08 % Area and the “Solution stability, T0 Purity” value was determined as 94.20 % Area. Besides, the “treprostinil formation in the vehicle” value in series [4] (formed over 72 hours) is 0.15%. Also, in [4] (same vehicle, T24), the “T24 Residual Treprostinil” value was determined as 0.13 % Area. For the same molecule, the “T72 Residual Treprostinil” value in series [4] (same vehicle, T72) was 0.23 % Area. Moreover, in [4] (same vehicle), the “Solution stability, T24 hours Purity” value was 94.25 % Area and the “Solution stability, T72 hours Purity” value stood at 94.56 % Area.
In the case of `CCCCC[C@H](O)CC[C@@H]1[C@H]2Cc3cccc(OCC(=O)OCC(=O)O)c3C[C@H]2C[C@H]1O` [Prodrug XV], the EC50 on IP1 receptor (Table 3 (Example 5)) was 0.00428 µM; at DP1 receptor (Table 3 (Example 5)), 0.00699 µM; at EP2 receptor (Table 3 (Example 5)), 0.0415 µM. For the same molecule, in the series with Sprague Dawley rats [5], the “thermal paw withdrawal time vs phosphate buffer treated group” value is “statistically significantly faster paw withdrawal time”. Also, the “von Frey withdrawal force threshold vs phosphate buffer group” value in the series on Sprague Dawley rats [6] was “reduced withdrawal force threshold”.
Turning to `CCCCC[C@@H](CC[C@@H]1[C@H]2Cc3cccc(OCC(=O)O)c3C[C@H]2C[C@H]1O)OC(=O)OC` [Prodrug IV, side chain methyl carbonate of treprostinil], in series [1], the stability in buffer entry is given as “stable”. Further, the “relative stability of the prodrugs in liver microsomes” value in series [2] is “least stable”. In series [3], the solubility thermodynamic at 23 h turned out to be 12.5 mg/mL (≈ 27.9 mM), the solubility thermodynamic at 24 h came to 12.2 mg/mL (≈ 27.2 mM) and the solubility thermodynamic at 72 h was 12.9 mg/mL (≈ 28.8 mM). Moreover, the “Solution stability, T0 Purity” value in series [4] (setting [7]) was 99.19 % Area. Moreover, in [4] (same vehicle), the “Solution stability, T24 hours Purity” value came out at 99.02 % Area and the “Solution stability, T72 hours Purity” value stood at 99.15 % Area.

The values above are taken from patent publication US11672775B2, “Treprostinil prodrugs” (United Therapeutics Corporation, priority 2016, dated 2023).
